{"source": "patent US20230114627A1", "about": "“COMPOSITION COMPRISING A METAL ASCORBO-CAMPHORATE COMPOUND AND METHOD FOR PREVENTION AND/OR TREATMENT OF PAPILLOMAVIRUS INFECTIONS” (MGB PHARMA Inc., priority 2020, published 2023)", "assay_type_in_all_cases": "cell-based", "key": {"[1]": {"tested_on": "HEC-1A", "assay": "Transepithelial electrical resistance (TEER) of HEC-1A monostratified epithelium", "settings": "up to 500 μM, 24 hours"}, "[2]": {"tested_on": "CaCo-2 (intestinal cells)", "assay": "XTT cell viability (KIT Tox-2) on CaCo-2", "settings": "CaCo-2, 24 hours, 1 μM to 500 μM tested", "description": "In this example, the cell viability as a measure of non-toxicity was assessed using KIT Tox-2 XTT Sigma Aldrich, where cell viability was measured in terms of the ability of cells to degrade a colorless compound into a colored compound (mitochondrial enzymes) using color intensity as being proportional to the cell viability. Three cell lines as models were used including HEC-1A (line of endocervical origin), SiHa (vaginal cells), and CaCo-2 (intestinal cells). […] KIT Tox-2 XTT Sigma Aldrich."}, "[3]": {"tested_on": "human diploid MRC5 cells", "assay": "MTT cytotoxicity assay on MRC5 cells", "description": "(§1) The cytotoxicity study was conducted on three types of cells: on Vero cells, on human diploid MRC5 cells (human fibroblast and embryonic type), and on Cos-7 cells. […] The latter forms crystals with the highly metabolic living cells.\n(§2) The absorbance at 490 nm of the dissolved crystals corresponds to the number of living cells.\nIn a second series of tests, the cytotoxicity of said ascorbo-camphorate on MRC5 cells was tested with the solutions at dilution ratios ranging from 0 to 100 millionths."}, "[4]": {"tested_on": "Vero cells", "assay": "MTT cytotoxicity assay on Vero cells", "description": "as §1, §2\nIn a first series of tests, the Cytotoxicity of said ascorbo-camphorate on Vero cells was verified with these solutions at dilution rates ranging from one tenth to one billionth."}}}
{"substance": "zinc tetra-ascorbo-camphorate [C14]", "values": [{"measurement": "effect on TEER", "setting": "[1]", "value": "does not affect the TEER"}, {"measurement": "concentrations without toxicity to epithelial cells", "setting": "[2]", "value": "less than or equal to 125 μM"}, {"measurement": "molarity of solutions tolerable by MRC5 cells (upper limit, exclusive value)", "setting": "[3]; lower limit tested 5.15.10-4 μM", "value": "< 5155", "unit": "µM"}, {"measurement": "percentage of living cells remaining", "setting": "[3]; one-tenth dilution of 0.05155 M stock", "value": "greater than or equal to 50%"}, {"measurement": "percentage of living cells remaining", "setting": "[4]; 50-fold dilution of 0.05155 M stock", "value": "greater than or equal to 50%"}, {"measurement": "molarity of solutions tolerable by Vero cells (upper limit, value excluded)", "setting": "[4]; lower limit tested 5.15.10^−5 μM", "value": "< 1031", "unit": "µM"}]}
